Results on ten molecules are retold here after ChEMBL document CHEMBL1201862, “PubChem BioAssay data set” (2004).

Among the test systems are DMS-273; HOP-18; KM-20L2; LXFL 529; MDA-N; RXF 631; SNB-78; XF498; BT-549.
Holding throughout (test): NCI-60 cell line screen, 48 h

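These data come from cells grown in 96-well plates and exposed to compound for 48 hours at five concentrations. GI50 marks 50% less growth.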 Active and inactive are the calls of the source. No stated cut-off is given here; in the data, active = GI50 up to about 1.1 µM and inactive = higher.

On to `Cc1ccc2oc(=O)c3c(O)c4cccc(OC5OC(C)C6O[C@@H](c7ccccc7)OC6C5OC5OC(C)C(O)C(O)C5O)c4c4oc(=O)c1c2c34` (stereo partly drawn), for which the GI50 with DMS-273 is 0.0278 µM (active); in the assay with HOP-18, 0.466 µM (active); in the assay on KM-20L2 it was 0.0354 µM (active); in the assay on LXFL 529, 0.0594 µM (active); in the assay on MDA-N, 0.121 µM (active); with RXF 631, 0.0456 µM (active). Also, the values for the GI50 in the assay on SNB-78 and with XF498 were 0.708 µM (active) and 0.0486 µM (active), respectively.
`CCOC(=O)C1N(S(=O)(=O)c2ccc(C)cc2)CCC12C(c1ccc(OC)c(OC)c1)=Nc1ccccc12` (stereo not drawn): the GI50 with DMS-273, in the assay with HOP-18, in the assay with KM-20L2, with LXFL 529, with RXF 631 and in the assay with SNB-78 was > 100 µM (inactive) throughout. For the same molecule, in the assay on XF498, the GI50 was 30.1 µM (inactive).
`CN(C)CC1CC/C(=C\c2ccc3c(c2)OCO3)C1=O` (stereo not drawn): the GI50 with BT-549 is 11.2 µM (inactive); with DMS-273, 16.8 µM (inactive); in the assay on HOP-18, 15.9 µM (inactive); in the assay with KM-20L2, 19.7 µM (inactive); in the assay with LXFL 529, 12.6 µM (inactive); with MDA-N, 4.42 µM (inactive). The GI50 in the assay on RXF 631 was 12.7 µM (inactive); with SNB-78 it was 21.8 µM (inactive); in the assay with XF498 it was 18.3 µM (inactive).
Turning to `COc1ccc2c(c1)CC1c3c(ccc(OC)c3O)CC2N1C` (stereo not drawn), the GI50 in the assay with DMS-273 was 22.4 µM (inactive); in the assay on HOP-18, 71.1 µM (inactive); in the assay on KM-20L2 it was 28.4 µM (inactive); in the assay on LXFL 529 it was 18.3 µM (inactive); in the assay with RXF 631, 22.6 µM (inactive); in the assay on SNB-78 it was 24.3 µM (inactive). Further, in the assay on XF498, the GI50 was 21.3 µM (inactive).
Turning to `N#CCCN(CCC#N)c1ccc(C(Sc2ccccc2)C(NC(=O)c2cc([N+](=O)[O-])ccc2Cl)C(=O)Sc2ccccc2)cc1` (stereo not drawn), the GI50 with DMS-273 was 1.56 µM (inactive); with HOP-18, 24 µM (inactive); in the assay on KM-20L2 it was 2.57 µM (inactive); in the assay with LXFL 529, 3.69 µM (inactive); with RXF 631, 2.03 µM (inactive); in the assay with SNB-78, 4.66 µM (inactive). The GI50 in the assay on XF498 was 8.67 µM (inactive).
Consider `CCCCCCCCCCCCCP(=O)(O)O`, for which the GI50 with DMS-273 is 50.9 µM (inactive); in the assay with HOP-18, > 100 µM (inactive); with KM-20L2, > 100 µM (inactive); with LXFL 529, > 100 µM (inactive); in the assay on RXF 631, > 100 µM (inactive); with SNB-78 it was > 100 µM (inactive). Moreover, the GI50 in the assay on XF498 was > 100 µM (inactive).
With `CNC(=S)NC(=S)N(C)C`, the GI50 is 0.869 µM (active) in the assay on DMS-273; > 100 µM (inactive) in the assay with HOP-18; > 100 µM (inactive) in the assay on KM-20L2; > 100 µM (inactive) with LXFL 529; > 100 µM (inactive) in the assay on RXF 631; > 100 µM (inactive) in the assay with SNB-78. In addition, in the assay with XF498, the GI50 was > 100 µM (inactive).
With `COC(=O)C(=O)C(C(=O)C(=O)Nc1cc(Cl)c(Cl)cc1Cl)c1nc2ccc([N+](=O)[O-])cc2nc1O` (stereo not drawn), the GI50 in the assay with DMS-273 was > 100 µM (inactive); in the assay with HOP-18, 8.81 µM (inactive); in the assay with KM-20L2, > 100 µM (inactive); in the assay on LXFL 529, > 100 µM (inactive); in the assay on RXF 631 it was > 100 µM (inactive); with SNB-78, > 100 µM (inactive). Also, the GI50 in the assay with XF498 is 7.1 µM (inactive).
`Cc1cccc(C2=NC(C)(C)C(C)(C)N=C2c2cccc(C)n2)n1`: the GI50 was > 100 µM (inactive) with DMS-273; > 100 µM (inactive) in the assay on HOP-18; 84.1 µM (inactive) in the assay with KM-20L2; 70.5 µM (inactive) with LXFL 529; > 100 µM (inactive) in the assay with RXF 631; > 100 µM (inactive) in the assay with SNB-78. Moreover, the GI50 with XF498 was > 100 µM (inactive).
Turning to `COC1=C(C(=O)OC(C)(C)C)C23CCCCC2(C(C(=O)OC(C)(C)C)=C(OC)C3C(=O)OC(C)(C)C)C1C(=O)OC(C)(C)C` (stereo not drawn), the GI50 in the assay on DMS-273 was 10.1 µM (inactive); in the assay with HOP-18, 12.5 µM (inactive); in the assay on KM-20L2, 16.7 µM (inactive); in the assay with LXFL 529, 23.2 µM (inactive); in the assay on RXF 631 it was 8.15 µM (inactive); in the assay with SNB-78, 72.9 µM (inactive). Also, in the assay on XF498, the GI50 is 38.1 µM (inactive).
